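GI50: concentration for 50% inhibition of growth. Definition used: TGI = concentration required for complete inhibition of growth.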
Assays:
Assay in all cases: NCI anticancer screen, dose series, 384-well format
MCF7 breast = system: MCF7 breast
SK-OV-3 ovarian = system: SK-OV-3 ovarian
SK-MEL-2 melanoma = system: SK-MEL-2 melanoma
OVCAR-3 ovarian = system: OVCAR-3 ovarian
NCI-H522 lung = system: NCI-H522 lung
SR leukemia = system: SR leukemia
A498 renal = system: A498 renal
K-562 leukemia = system: K-562 leukemia
HT29 colon = system: HT29 colon
NCI-H460 NSCLC = system: NCI-H460 NSCLC
BT-549 breast = system: BT-549 breast
SNB-19 CNS = system: SNB-19 CNS
MDA-MB-468 breast = system: MDA-MB-468 breast
M14 melanoma = system: M14 melanoma
A549 NSCLC = system: A549 NSCLC
SF-295 CNS = system: SF-295 CNS
SF-268 CNS = system: SF-268 CNS
786-0 renal = system: 786-0 renal
NCI-H226 lung = system: NCI-H226 lung
MOLT-4 leukemia = system: MOLT-4 leukemia
LOX IMVI melanoma = system: LOX IMVI melanoma
HCT-116 colon = system: HCT-116 colon
OVCAR-5 ovarian = system: OVCAR-5 ovarian
IGROV1 ovarian = system: IGROV1 ovarian
KM12 colon = system: KM12 colon
SN12C renal = system: SN12C renal
HL-60(TB) leukemia = system: HL-60(TB) leukemia
COLO 205 colon = system: COLO 205 colon

SMILES: C=CC(=O)Nc1cc(Nc2ncc(C(=O)OC(C)C)c(-c3cn(C)c4ccccc34)n2)c(OC)cc1N(C)CCN(C)C
- TGI (MCF7 breast): 3110 nM
- GI50 (SK-OV-3 ovarian): 50 nM
- TGI (SK-OV-3 ovarian): 2040 nM
- GI50 (SK-MEL-2 melanoma): 1570 nM
- TGI (SK-MEL-2 melanoma): 2910 nM
- GI50 (OVCAR-3 ovarian): 1200 nM
- TGI (OVCAR-3 ovarian): 2680 nM
- GI50 (NCI-H522 lung): < 10 nM
- TGI (NCI-H522 lung): 1400 nM
- GI50 (SR leukemia): 1100 nM
- TGI (SR leukemia): 2290 nM
- GI50 (A498 renal): 1250 nM
- TGI (A498 renal): 2530 nM
- GI50 (K-562 leukemia): 1930 nM
- TGI (K-562 leukemia): 3340 nM
- GI50 (HT29 colon): 1670 nM
- TGI (HT29 colon): 3050 nM
- GI50 (NCI-H460 NSCLC): 1630 nM
- TGI (NCI-H460 NSCLC): 2980 nM
- GI50 (BT-549 breast): 1910 nM
- TGI (BT-549 breast): 3480 nM
- GI50 (SNB-19 CNS): 3990 nM
- TGI (SNB-19 CNS): 15100 nM
- GI50 (MDA-MB-468 breast): 26 nM
- TGI (MDA-MB-468 breast): 1330 nM
- GI50 (M14 melanoma): 1760 nM
- TGI (M14 melanoma): 3140 nM
- GI50 (A549 NSCLC): 1450 nM
- TGI (A549 NSCLC): 4670 nM
- GI50 (SF-295 CNS): 7040 nM
- TGI (SF-295 CNS): 19500 nM
- GI50 (SF-268 CNS): 1570 nM
- TGI (SF-268 CNS): 2960 nM
- GI50 ([…]-0 renal): 1300 nM
- TGI (786-0 renal): 2580 nM
- GI50 (NCI-H226 lung): 1980 nM
- TGI (NCI-H226 lung): 4640 nM
- GI50 (MOLT-4 leukemia): 1130 nM
- TGI (MOLT-4 leukemia): 2330 nM
- GI50 (LOX IMVI melanoma): 2220 nM
- TGI (LOX IMVI melanoma): 3670 nM
- GI50 (HCT-116 colon): 1640 nM
- TGI (HCT-116 colon): 3000 nM
- GI50 (OVCAR-5 ovarian): 4180 nM
- TGI (OVCAR-5 ovarian): > 100000 nM
- GI50 (IGROV1 ovarian): 1010 nM
- TGI (IGROV1 ovarian): 2310 nM
- GI50 (KM12 colon): 1760 nM
- TGI (KM12 colon): 3210 nM
- GI50 (SN12C renal): 1630 nM
- TGI (SN12C renal): 3380 nM
- GI50 (HL-60(TB) leukemia): 1650 nM
- TGI (HL-60(TB) leukemia): 3000 nM
- GI50 (COLO 205 colon): 1740 nM
- TGI (COLO 205 colon): 3130 nM

— PubChem BioAssay (NCI)
